Assays:
[1] = target: T1, BTK enzyme (recombinant full-length BTK, hBTK) (Homo sapiens, UniProt Q06187); assay: BTK enzyme activity assay, LANCE TR-FRET; format: biochemical; details: 50 pM hBTK, 2 μM biotin-A5-peptide, 25 μM ATP; 60 min compound & enzyme incubation; read-out: IC50 BTK activity value
T1 construct: recombinant protein from baculovirus-transfected Sf9 cells: full-length BTK, 6HIS-tag cleaved; 6HIS (cleaved yes); made in house; host or cells: baculovirus-transfected Sf9 cells

[2] = test system: HeLa cells; assay: [3H]Adenosine uptake functional cellular assay; format: cell-based; details: Homo sapiens, HeLa, accumulation of [3H]adenosine into HeLa cells; compound range 10 μM to […]; read-out: Adenosine uptake inhibition IC50
Summary of the method: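 Inhibition of adenosine uptake was measured in HeLa cells (ATCC CCL-2) by following accumulation of tritiated adenosine. Cells were kept overnight at 37° C. with 5% (v/v) CO2, then switched to 40 μL HBSS plus 5% (v/v) FBS. 20 μL of 500 nM [3H]adenosine was added, and uptake was counted on a Topcount NXT reader.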

T1 sequence (Q06187 whole entry): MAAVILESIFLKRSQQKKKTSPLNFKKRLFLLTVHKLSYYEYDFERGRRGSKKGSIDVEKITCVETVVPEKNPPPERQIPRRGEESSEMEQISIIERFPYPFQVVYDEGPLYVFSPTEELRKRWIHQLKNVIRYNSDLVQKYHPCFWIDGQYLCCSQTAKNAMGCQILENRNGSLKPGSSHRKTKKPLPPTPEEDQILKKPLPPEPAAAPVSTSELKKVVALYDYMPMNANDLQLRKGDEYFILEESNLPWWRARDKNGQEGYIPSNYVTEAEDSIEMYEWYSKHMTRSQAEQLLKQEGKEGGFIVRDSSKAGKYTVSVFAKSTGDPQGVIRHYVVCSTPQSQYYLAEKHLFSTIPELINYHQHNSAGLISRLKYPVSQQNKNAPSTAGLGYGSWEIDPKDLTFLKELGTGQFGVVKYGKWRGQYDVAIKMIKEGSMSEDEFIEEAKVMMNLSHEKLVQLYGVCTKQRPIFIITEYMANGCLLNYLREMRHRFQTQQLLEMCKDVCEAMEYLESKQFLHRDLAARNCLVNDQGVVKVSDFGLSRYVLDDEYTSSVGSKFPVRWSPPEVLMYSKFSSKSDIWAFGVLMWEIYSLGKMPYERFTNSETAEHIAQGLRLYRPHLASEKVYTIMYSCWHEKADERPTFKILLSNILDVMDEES

SMILES	IC50 [1]	IC50 [2]
CCOc1cc(C(=O)Nc2cc(C(F)(F)F)n(C)n2)ccc1-c1nc([C@@H]2CC[C@H]3CCC(=O)N3C2)n2c(C(F)(F)F)cnc(N)c12 [Example 215, 4-{8-amino-3-[(6R,8aS)-3-oxooctahydroindolizin-6-yl]-5-(trifluoromethyl)imidazo[1,5-a]pyrazin-1-yl}-3-ethoxy-N-[1-methyl-5-(trifluoromethyl)-1H-pyrazol-3-yl]benzamide]	4 nM	2470 nM
CC(F)(F)Oc1cc(C(=O)Nc2cc(C(F)(F)F)ccn2)ccc1-c1nc([C@@H]2CC[C@H]3CCC(=O)N3C2)n2c(Cl)cnc(N)c12 [Example 216, 4-{8-amino-5-chloro-3-[(6R,8aS)-3-oxooctahydroindolizin-6-yl]imidazo[1,5-a]pyrazin-1-yl}-3-(1,1-difluoroethoxy)-N-[4-(trifluoromethyl)pyridin-2-yl]benzamide]	6.6 nM	895 nM
COc1cc(C(=O)Nc2cc(C(F)(F)F)ccn2)cc(F)c1-c1nc([C@@H]2CC[C@H]3CCC(=O)N3C2)n2c(Cl)cnc(N)c12 [Example 217, 4-{8-amino-5-chloro-3-[(6R,8aS)-3-oxooctahydroindolizin-6-yl]imidazo[1,5-a]pyrazin-1-yl}-3-fluoro-5-methoxy-N-[4-(trifluoromethyl)pyridin-2-yl]benzamide]	0.17 nM	714 nM
COc1cc(C(=O)Nc2cc(C(F)(F)F)ccn2)c(Cl)cc1-c1nc([C@@H]2CC[C@H]3CCC(=O)N3C2)n2c(Cl)cnc(N)c12 [Example 218, 4-{8-amino-5-chloro-3-[(6R,8aS)-3-oxooctahydroindolizin-6-yl]imidazo[1,5-a]pyrazin-1-yl}-2-chloro-5-methoxy-N-[4-(trifluoromethyl)pyridin-2-yl]benzamide]	1.8 nM	4850 nM
COc1cc(C(=O)Nc2cc(C(F)(F)F)ccn2)cc(F)c1-c1nc([C@@H]2CC[C@H]3CC(C)(C)C(=O)N3C2)n2ccnc(N)c12 [Example 219, 4-{8-amino-3-[(6R,8aS)-2,2-dimethyl-3-oxooctahydroindolizin-6-yl]imidazo[1,5-a]pyrazin-1-yl}-3-fluoro-5-methoxy-N-[4-(trifluoromethyl)pyridin-2-yl]benzamide]	0.28 nM	726 nM
COc1cc(C(=O)Nc2cc(C(F)(F)F)ccn2)cc(F)c1-c1nc([C@@H]2CC[C@H]3CCC(=O)N3C2)n2c(F)cnc(N)c12 [Example 220, 4-{8-amino-5-fluoro-3-[(6R,8aS)-3-oxooctahydroindolizin-6-yl]imidazo[1,5-a]pyrazin-1-yl}-3-fluoro-5-methoxy-N-[4-(trifluoromethyl)pyridin-2-yl]benzamide]	0.4 nM	1520 nM

— patent publication US20140206681A1, “BTK INHIBITORS” (priority 2013, published 2014)
